Measurements taken from BigSolDB 2.1.

CCOc1ccc(C2NC(=O)NC=C2C(=O)c2cc(OC)c(OC)c(OC)c2)cc1 (stereo not given)
solubility (mole fraction)
Settings	298.15 K	303.15 K	308.15 K	313.15 K	318.15 K
in DMSO	0.00547	0.0065	0.00754	0.00879	0.00996
in ethanol	0.000294	0.000402	0.000516	0.000654	0.000802
in ethyl acetate	0.00143	0.00174	0.00222	0.00286	0.00345
in ethylene glycol	0.000397	0.000543	0.000697	0.000866	0.00107
in isopropanol	0.000469	0.000619	0.000772	0.000958	0.00113
in methanol	0.000252	0.000328	0.000407	0.00049	0.000577
in n-butanol	0.000672	0.000859	0.00105	0.00125	0.00146
in propylene glycol	0.000504	0.000682	0.00087	0.00107	0.00133
in sec-butanol	0.00067	0.000855	0.00104	0.00124	0.00145
in transcutol	0.00301	0.00367	0.00441	0.00519	0.00624
in water	7.87e-06	1.09e-05	1.51e-05	2.02e-05	2.54e-05

Settings	solubility (mole fraction)
in PEG-400, 298.15 K	0.00521
in PEG-400, 303.15 K	0.00675
in PEG-400, 308.15 K	0.00831
in PEG-400, 313.15 K	0.0103
in PEG-400, 318.15 K	0.0121
